Results reported in patent US10506809B2, “Herbicidal combination comprising saflufenacil and glufosinate” (BASF SE, priority 2015, dated 2019).
Read-outs that look alike come from different tables or passages of the source.

Legend:
Format in all cases: in vivo
[1] = tested on: Amaranthus retroflexus; experiment: Greenhouse post-emergence herbicidal activity on AMARE (pig weed)
Description: (§1) The test plants were first grown to a height of 3 to 20 cm, depending on the plant habit, and only then treated (post-emergence treatment). Here, the herbicidal combinations were suspended, emulsified or dissolved in water as distribution medium and afterwards applied by spraying, using finely distributing nozzles.
(§2) The herbicides A, B and C were used as commercially available formulations and introduced to the spray liquor with the amount of solvent system used for applying the active compound. In the examples, the solvent used was water.
(§3) The test period extended over 20 days. During this time, the plants were tended, and their response to the treatments with active compounds was evaluated.
(§4) The evaluation for the damage caused by the chemical compositions was carried out using a scale from 0 to 100%, compared to the untreated control plants. Here, 0 means no damage and 100 means complete destruction of the plants.
(§5) The plants used in the greenhouse experiments belonged to the following species:
(§6) The value E, which is to be expected if the activity of the individual compounds is just additive, was calculated using the method of S. R. Colby (1967) “Calculating synergistic and antagonistic responses of herbicide combinations”, Weeds 15, p. 22 ff. For two component mixtures the value E was calculated by the following formula E=X+Y−(X·Y/100) where • X=effect in percent using a mixture of herbicides A and B at application rates a and b, respectively; • Y=effect in percent using herbicide C at an application rate c; • E=expected effect (in %) of A+B+C at application rates a+b+c.
(§7) If the value observed in this manner is higher than the value E calculated according to Colby, a synergistic effect is present.
(§8) Tables 1 to 21 relate to the herbicidal activities of the binary mixture of herbicides A and B, of herbicide C individually and of their combinations in post-emergence application assessed 20 days after treatment (20 DAT).

[2] = tested on: Brachiaria platyphylla; experiment: Greenhouse post-emergence herbicidal activity on BRAPP (broadleaf signalgrass)
Description: as §1, §2
The test period extended over 20 days. During this time, the plants were tended, and their response to the treatments with active compounds was evaluated. […]
The value E, which is to be expected if the activity of the individual compounds is just additive, was calculated using the method of S. R. Colby (1967) “Calculating synergistic and antagonistic responses of herbicide combinations”, Weeds 15, p. […] For two component mixtures the value E was calculated by the following formula E=X+Y−(X·Y/100) where • X=effect in percent using a mixture of herbicides A and B at application rates a and b, respectively; • Y=effect in percent using herbicide C at an application rate c; • E=expected effect (in %) of A+B+C at application rates a+b+c.
If the value observed in this manner is higher than the value E calculated according to Colby, a synergistic effect is present. […]

[3] = tested on: Abutilon theophrasti; experiment: Greenhouse post-emergence herbicidal activity on ABUTH (velvetleaf)
Description: as §1, §2, §3, §4, §5, §6, §7, §8

[4] = tested on: Brachiaria decumbens; experiment: Greenhouse post-emergence herbicidal activity on BRADC (Surinam grass)
Description: as §1, §2, §3, §4, §5, §6, §7, §8

[5] = tested on: Digitaria sanguinalis; experiment: Greenhouse post-emergence herbicidal activity on DIGSA (large crabgrass)
Description: as §1, §2, §3, §4, §5, §6, §7, §8

[6] = tested on: Setaria viridis; experiment: Greenhouse post-emergence herbicidal activity on SETVI (green foxtail)
Description: as §1, §2, §3, §4, §5, §6, §7, §8

[7] = tested on: Solanum nigrum; experiment: Greenhouse post-emergence herbicidal activity on SOLNI (black nightshade)
Description: as §1, §2, §3, §4, §5, §6, §7, §8

[8] = tested on: Avena fatua; experiment: Greenhouse post-emergence herbicidal activity on AVEFA (common wild oat)
Description: as §1, §2, §3, §4, §5, §6, §7, §8

[9] = tested on: Echinochloa crus-galli; experiment: Greenhouse post-emergence herbicidal activity on ECHCG (barnyard grass)
Description: as §1, §2, §3, §4, §5, §6, §7, §8

[10] = solo C 2,4-D LV ester 6.25 g ai/ha
[11] = solo C S-metolachlor 150.0 g ai/ha
[12] = Abutilon theophrasti, 480 h, ABUTH, solo C 20.0 g ai/ha, 20 DAT, read-out: % activity 20 DAT

## CCCCC(CC)COC(=O)COc1ccc(Cl)cc1Cl (stereo not drawn) [2,4-D LV ester, 2,4-D]
[1]; [10]
  % activity 20 DAT: 45%
[2]; [10]
  % activity 20 DAT: 10%

## CCc1cccc(C)c1N(C(=O)CCl)[C@@H](C)COC [S-metolachlor, S-Metolachlor]
[3]; solo C S-metolachlor 150.0 g ai/ha, ABUTH
  % activity 20 DAT: 10%
[4]; [11]
  % activity 20 DAT: 0%
[5]; [11]
  % activity 20 DAT: 0%
[6]; solo C S-metolachlor 300.0 g ai/ha, SETVI
  % activity 20 DAT: 60%

## CCOCN(C(=O)CCl)c1c(C)cccc1CC [acetochlor, Acetochlor]
[3]; Abutilon theophrasti, 480 h, solo C acetochlor 12.5 g ai/ha, ABUTH, read-out: % activity 20 DAT
  inhibition at 12.5 g/ha: 10%

## CCNc1nc(Cl)nc(NC(C)C)n1 [atrazin, Atrazin]
[7]; Solanum nigrum, 480 h, solo C atrazin 6.25 g ai/ha, read-out: % activity 20 DAT
  inhibition at 6.25 g/ha: 35%

## CS(=O)(=O)c1ccc(C(=O)C2=C(Sc3ccccc3)C3CCC(C3)C2=O)c(Cl)c1 (stereo not drawn) [benzobicyclon, Benzobicyclon]
[3]; ABUTH, solo C 20.0 g ai/ha, 20 DAT
  % activity 20 DAT: 90%
[1]; solo C 20.0 g ai/ha, 20 DAT
  % activity 20 DAT: 60%
[8]; solo C 10.0 g ai/ha
  % activity 20 DAT: 10%
[5]; solo C 20.0 g ai/ha, 20 DAT
  % activity 20 DAT: 60%

## COc1c(Cl)ccc(Cl)c1C(=O)O [dicamba, Dicamba]
[3]; Abutilon theophrasti, 480 h, solo C dicamba 17.5 g ai/ha, ABUTH, read-out: % activity 20 DAT
  inhibition at 17.5 g/ha: 70%
[6]; Setaria viridis, 480 h, read-out: % activity 20 DAT
  inhibition at 8.75 g/ha: 15%

## CCOc1nc(F)cc2nc(S(=O)(=O)Nc3c(Cl)cccc3Cl)nn12 [diclosulam, Diclosulam]
[6]; solo C diclosulam 0.5 g ai/ha, SETVI
  % activity 20 DAT: 35%
[7]; solo C diclosulam 0.25 g ai/ha
  % activity 20 DAT: 25%

## COC[C@H](C)N(C(=O)CCl)c1c(C)csc1C [dimethenamid-P, Dimethenamid-P]
[7]; solo C dimethenamid-P 18.75 g ai/ha
  % activity 20 DAT: 10%

## C#CCN1C(=O)COc2cc(F)c(N3C(=O)C4=C(CCCC4)C3=O)cc21 [flumioxazin, Flumioxazin]
[3]; Abutilon theophrasti, 480 h, solo C flumioxazin 0.125 g ai/ha, ABUTH, read-out: % activity 20 DAT
  inhibition at 0.125 g/ha: 80%
[6]; Setaria viridis, 480 h, solo C flumioxazin 0.25 g ai/ha, SETVI, read-out: % activity 20 DAT
  inhibition at […]: 60%

## Nc1c(Cl)c(F)nc(OCC(=O)O)c1Cl [fluroxypyr, Fluroxypyr]
[3]; [12]
  pest or weed control at 20 g/ha: 50%
[8]; solo C 10.0 g ai/ha
  % activity 20 DAT: 0%

## CS(=O)(=O)c1cc(C(F)(F)F)ccc1C(=O)c1cnoc1C1CC1 [isoxaflutole, Isoxaflutole]
[1]; Amaranthus retroflexus, 480 h, solo C isoxaflutole 0.5 g ai/ha, read-out: % activity 20 DAT
  inhibition at 0.5 g/ha: 55%
[2]; Urochloa platyphylla, 480 h, solo C isoxaflutole 1.0 g ai/ha, read-out: % activity 20 DAT
  inhibition at 1 g/ha: 25%

## CS(=O)(=O)c1ccc(C(=O)C2C(=O)CCCC2=O)c([N+](=O)[O-])c1 [mesotrione, Mesotrione]
[6]; Setaria viridis, 480 h, solo C mesotrione 2.5 g ai/ha, SETVI, read-out: % activity 20 DAT
  inhibition at […]: 25%
[7]; Solanum nigrum, 480 h, solo C mesotrione 1.25 g ai/ha, read-out: % activity 20 DAT
  inhibition at 1.25 g/ha: 85%

## CCC(CC)Nc1c([N+](=O)[O-])cc(C)c(C)c1[N+](=O)[O-] [pendimethalin, Pendimethalin]
[1]; Amaranthus retroflexus, 480 h, solo C pendimethalin 75.0 g ai/ha, read-out: % activity 20 DAT
  inhibition at 75 g/ha: 55%
[6]; Setaria viridis, 480 h, solo C pendimethalin 150.0 g ai/ha, SETVI, read-out: % activity 20 DAT
  inhibition at 150 g/ha: 25%

## Cc1nn(C)c(O)c1C(=O)c1ccc(C(F)(F)F)cc1S(C)(=O)=O [pyrasulfotole, Pyrasulfotole]
[4]; solo C 5.0 g ai/ha, 20 DAT
  % activity 20 DAT: 0%
[5]; solo C 5.0 g ai/ha, 20 DAT
  % activity 20 DAT: 35%
[9]; solo C 2.5 g ai/ha
  % activity 20 DAT: 80%

## Cc1ccc(S(=O)(=O)Oc2c(C(=O)c3ccc(Cl)cc3Cl)c(C)nn2C)cc1 [pyrazolynate, Pyrazolynate]
[3]; [12]
  pest or weed control at 20 g/ha: 25%
[4]; solo C 10.0 g ai/ha, 20 DAT
  % activity 20 DAT: 0%
[5]; solo C 10.0 g ai/ha, 20 DAT
  % activity 20 DAT: 0%

## O=C(O)c1c(Cl)ccc2cc(Cl)cnc12 [quinclorac, Quinclorac]
[8]; Avena fatua, 480 h, solo C quinclorac 5.0 g ai/ha, read-out: % activity 20 DAT
  inhibition at 5 g/ha: 0%
[9]; Echinochloa crus-galli, 480 h, solo C quinclorac 5.0 g ai/ha, read-out: % activity 20 DAT
  inhibition at 5 g/ha: 0%

## Cc1nn(-c2cc(NS(C)(=O)=O)c(Cl)cc2Cl)c(=O)n1C(F)F [salfentrazone, Sulfentrazone]
[3]; Abutilon theophrasti, 480 h, solo C salfentrazone 1.5 g ai/ha, ABUTH, read-out: % activity 20 DAT
  inhibition at 1.5 g/ha: 40%
[6]; Setaria viridis, 480 h, solo C salfentrazone 1.5 g ai/ha, SETVI, read-out: % activity 20 DAT
  inhibition at 1.5 g/ha: 30%

## CS(=O)(=O)c1ccc(C(=O)C2C(=O)CCCC2=O)c(Cl)c1 [sulcotrione, Sulcotrione]
[3]; Abutilon theophrasti, 480 h, read-out: % activity 20 DAT
  pest or weed control at 20 g/ha: 85%
[4]; solo C 5.0 g ai/ha, 20 DAT
  % activity 20 DAT: 0%
[9]; solo C 2.5 g ai/ha
  % activity 20 DAT: 30%

## CS(=O)(=O)c1ccc(C(=O)C2C(=O)CCCC2=O)c(Cl)c1COCC(F)(F)F [tembotrione, Tembotrione]
[3]; Abutilon theophrasti, 480 h, solo C tembotrione 1.0 g ai/ha, ABUTH, read-out: % activity 20 DAT
  inhibition at 1 g/ha: 10%
[1]; Amaranthus retroflexus, 480 h, solo C tembotrione 0.5 g ai/ha, read-out: % activity 20 DAT
  inhibition at 0.5 g/ha: 80%
[8]; Avena fatua, 480 h, solo C tembotrione 1.0 g ai/ha, read-out: % activity 20 DAT
  inhibition at 1 g/ha: 10%
[6]; Setaria viridis, 480 h, solo C tembotrione 1.0 g ai/ha, SETVI, read-out: % activity 20 DAT
  inhibition at 1 g/ha: 0%

## Cc1c(C(=O)c2cnn(C)c2O)ccc(S(C)(=O)=O)c1C1=NOCC1 [topramezone, Topramezone]
[3]; ABUTH, solo C 0.25 g ai/ha, 20 DAT
  % activity 20 DAT: 0%
[8]; solo C 0.25 g ai/ha
  % activity 20 DAT: 10%
[5]; solo C 0.25 g ai/ha, 20 DAT
  % activity 20 DAT: 10%
[9]; solo C 0.25 g ai/ha
  % activity 20 DAT: 20%

## Bicyclopyrone
[8]; solo C 2.0 g ai/ha
  % activity 20 DAT: 0%
[9]; solo C 20.0 g ai/ha
  % activity 20 DAT: 75%
[6]; SETVI, solo C 1.0 g ai/ha, 20 DAT
  % activity 20 DAT: 0%
